In PubChem BioAssay AID743160 (Sanford-Burnham Center for Chemical Genomics, 2013):
Activity calls are given as the source filed them. No rule for the calls is given here.

The molecules below were run on H9c2 cells, DAPI nuclear count (cytotoxicity), overnight (assay: DAPI-stained nuclei loss in H9c2 cells – cell-based, DAPI fluorescence, cytotoxicity control for triacylglycerol accumulation inhibitor project, SAR follow-up (AID 743160)).

**Q.** `O=C(Nc1cccc(-c2nc3ccccc3[nH]2)c1)c1cccc2c1C(=O)N(CC1CC1)C2` was tested. Which IC50 did it give?
**A.** The IC50 was > 50 µM (inactive).

**Q.** Which IC50 does the source give for `O=C1COc2ccc(C(=O)CSc3nc4ccccc4c(=O)n3-c3ccc(Cl)c(Cl)c3)cc2N1` here?
**A.** Its IC50 is 7.69 µM (inactive).

**Q.** With `CCCCN1Cc2cccc(C(=O)Nc3cccc(-c4nc5ccccc5[nH]4)c3)c2C1=O` as the molecule, how does the IC50 read?
**A.** The IC50 was > 50 µM (inactive).

**Q.** `CCOC(=O)c1cccc(NC(=O)c2cccc3c2C(=O)N(CCOC)C3)c1` was tested. Which IC50 did it give?
**A.** The IC50 was > 50 µM (inactive).

**Q.** `Cc1cc(C)c2nc(-c3ccncc3)cc(C(=O)N3CCN(Cc4ccccc4Cl)CC3)c2c1` was tested. Which IC50 did it give?
**A.** The IC50 was 23.6 µM (inactive).

**Q.** How did the IC50 turn out when `CCOc1ccccc1NC(=O)c1cccc(NC(=O)c2ccco2)c1` was run?
**A.** The IC50 was 23.2 µM (inactive).

**Q.** `COc1ccc(CCN2Cc3cccc(C(=O)Nc4cccc(-c5nc6ccccc6[nH]5)c4)c3C2=O)cc1OC` was tested. Which IC50 did it give?
**A.** The IC50 was > 50 µM (inactive).

**Q.** Which IC50 does the source give for `CN(C)CCCn1c(SCC(=O)Nc2nc(-c3cccc(Br)c3)cs2)nc2ccccc2c1=O` here?
**A.** The IC50 was 27.1 µM (inactive).

**Q.** How did the IC50 turn out when `CCCCSc1nc2ccc(Nc3nc(N4CCOCC4)nc(N4CCOCC4)n3)cc2s1` was run?
**A.** The IC50 was > 50 µM (inactive).

**Q.** For `COCCN1Cc2cccc(C(=O)Nc3cccc(-c4nc5ccc(F)cc5[nH]4)c3)c2C1=O`, which IC50 is on record?
**A.** Its IC50 is > 50 µM (inactive).

**Q.** Which IC50 does the source give for `COCCN1Cc2cccc(C(=O)Nc3cccc(-c4nc5ccc(C)cc5[nH]4)c3)c2C1=O` here?
**A.** The IC50 was > 50 µM (inactive).

**Q.** How did the IC50 turn out when `Cc1ccc(-c2csc(NC(=O)CSc3nc4ccccc4c(=O)n3CCCN(C)C)n2)cc1` was run?
**A.** The IC50 was > 50 µM (inactive).

**Q.** Which IC50 does the source give for `Cc1ccccc1NC(=O)CSc1nc(Nc2ccccc2)nc(N2CCOCC2)n1` here?
**A.** The IC50 was > 50 µM (inactive).

**Q.** For `COCCN1Cc2cccc(C(=O)Nc3cccc(-c4nc5ccc(Cl)cc5[nH]4)c3)c2C1=O`, which IC50 is on record?
**A.** The IC50 was > 50 µM (inactive).

**Q.** How did the IC50 turn out when `COc1cc2c(cc1OC)C(C)N(C(=O)c1cc3c(C)cc(C)cc3[nH]1)CC2` (stereo unspecified) was run?
**A.** The IC50 was > 50 µM (inactive).

**Q.** For `CCOCCN1Cc2cccc(C(=O)Nc3cccc(-c4nc5ccccc5[nH]4)c3)c2C1=O`, which IC50 is on record?
**A.** The IC50 was > 50 µM (inactive).

**Q.** For `Cc1ccccc1NC(=O)CSc1nc2ccc(Nc3nc(N4CCOCC4)nc(N4CCOCC4)n3)cc2s1`, which IC50 is on record?
**A.** The IC50 was 40 µM (inactive).

**Q.** For `O=C(CCC(=O)N1CCOc2ccc(Cl)cc21)NCCCN1CCC(Cc2ccccc2)CC1`, which IC50 is on record?
**A.** The IC50 was 13.5 µM (inactive).

**Q.** With `O=[N+]([O-])c1ccc(Nc2nc(NC3CCCCC3)nc(N3CCCC3)n2)cc1` as the molecule, how does the IC50 read?
**A.** Its IC50 is 11 µM (inactive).

**Q.** How did the IC50 turn out when `O=C(CSc1nc2ccc(Nc3nc(N4CCOCC4)nc(N4CCOCC4)n3)cc2s1)Nc1ccccc1Cl` was run?
**A.** The IC50 was 27.8 µM (inactive).

**Q.** How did the IC50 turn out when `COc1cccc(-c2cc(C(=O)Nc3ccc(N(C)C(C)=O)cc3)c3cc(Br)ccc3n2)c1` was run?
**A.** The IC50 was > 50 µM (inactive).

**Q.** `COc1ccccc1CCN1Cc2cccc(C(=O)Nc3cccc(-c4nc5ccccc5[nH]4)c3)c2C1=O` was tested. Which IC50 did it give?
**A.** The IC50 was > 50 µM (inactive).

**Q.** `Cc1ccc(Nc2nc(OC(C(F)(F)F)C(F)(F)F)nc(N3CCOCC3)n2)cc1` was tested. Which IC50 did it give?
**A.** The IC50 was > 50 µM (inactive).

**Q.** `CCn1c(SCC(=O)Nc2nc(-c3ccc(C)cc3)cs2)nnc1-c1ccccc1O` was tested. Which IC50 did it give?
**A.** Its IC50 is 8.1 µM (inactive).

**Q.** With `O=C(Nc1cccc2ncccc12)c1ccc(Cl)cc1` as the molecule, how does the IC50 read?
**A.** The IC50 was > 50 µM (inactive).

**Q.** How did the IC50 turn out when `CCCC(=O)Nc1nc2ccc(NC(=O)c3ccccc3F)cc2s1` was run?
**A.** The IC50 was > 50 µM (inactive).

**Q.** `CCCC(=O)Nc1nc2ccc(NC(=O)c3c(F)c(F)c(OC)c(F)c3F)cc2s1` was tested. Which IC50 did it give?
**A.** Its IC50 is > 50 µM (inactive).

**Q.** With `COCCN1Cc2cccc(C(=O)Nc3cccc(-c4nc5ccccc5[nH]4)c3)c2C1=O` as the molecule, how does the IC50 read?
**A.** Its IC50 is > 50 µM (inactive).

**Q.** `CCC(C)(C)NC(=O)C(c1ccc(C)cc1)N(Cc1ccco1)C(=O)CCC(=O)Nc1nccs1` (stereo unspecified) was tested. Which IC50 did it give?
**A.** Its IC50 is > 50 µM (inactive).

**Q.** Which IC50 does the source give for `CCN(CC)S(=O)(=O)c1ccc(N2CCOCC2)c(NC(=O)c2[nH]c(C)c(C(C)=O)c2C)c1` here?
**A.** The IC50 was > 50 µM (inactive).

**Q.** For `COCCN1Cc2cccc(C(=O)NCc3cccc(N(C)C)c3)c2C1=O`, which IC50 is on record?
**A.** Its IC50 is > 50 µM (inactive).

**Q.** For `O=C(Nc1cccc(-c2nc3ccccc3[nH]2)c1)c1cccc2c1C(=O)N(CCN1CCOCC1)C2`, which IC50 is on record?
**A.** Its IC50 is > 50 µM (inactive).

**Q.** With `COc1cc(NC(=O)c2cc([N+](=O)[O-])ccc2NC(=O)CN2CCN(c3ccccn3)CC2)cc(OC)c1` as the molecule, how does the IC50 read?
**A.** Its IC50 is > 50 µM (inactive).

**Q.** `COCCN1Cc2cccc(C(=O)Nc3nc4ccccc4[nH]3)c2C1=O` was tested. Which IC50 did it give?
**A.** The IC50 was > 50 µM (inactive).

**Q.** How did the IC50 turn out when `COCCn1cnc2cccc(C(=O)Nc3cccc(-c4nc5ccccc5[nH]4)c3)c2c1=O` was run?
**A.** The IC50 was > 50 µM (inactive).

**Q.** For `COCCN1Cc2cccc(C(=O)Nc3cccc(-c4nc5ccc(C(F)(F)F)cc5[nH]4)c3)c2C1=O`, which IC50 is on record?
**A.** The IC50 was > 50 µM (inactive).

**Q.** With `Cc1cccc2c(C(=O)N3CCN(c4ccccc4)CC3)cc(-c3ccncc3)nc12` as the molecule, how does the IC50 read?
**A.** Its IC50 is > 50 µM (inactive).

**Q.** Which IC50 does the source give for `Cc1ccccc1OCCNc1cc(N2CC(C)NC(C)C2)ccc1[N+](=O)[O-]` (stereo unspecified) here?
**A.** The IC50 was > 50 µM (inactive).

**Q.** `COCCN1Cc2cccc(C(=O)Nc3nc4ccccc4n3C)c2C1=O` was tested. Which IC50 did it give?
**A.** Its IC50 is > 50 µM (inactive).

**Q.** With `CCOc1ccc(NC(=O)CN(C)C(=O)c2cc(-c3ccc(OC)cc3)nc3ccccc23)cc1OCC` as the molecule, how does the IC50 read?
**A.** The IC50 was > 50 µM (inactive).

**Q.** With `O=C(Nc1cccc(-c2nc3ccccc3[nH]2)c1)c1cccc2c1C(=O)N(CCOc1ccccc1)C2` as the molecule, how does the IC50 read?
**A.** The IC50 was > 50 µM (inactive).

**Q.** For `COCCN1Cc2cccc(C(=O)Nc3cccnc3)c2C1=O`, which IC50 is on record?
**A.** The IC50 was > 50 µM (inactive).

**Q.** `CCOC(=O)c1cc(-c2ccccc2)sc1NC(=O)C(C)N1C(=O)NC(C)(c2ccc(Cl)cc2)C1=O` (stereo unspecified) was tested. Which IC50 did it give?
**A.** Its IC50 is > 50 µM (inactive).

**Q.** Which IC50 does the source give for `CCC(C)(C)NC(=O)C(c1ccc(OC)cc1)N(Cc1cccs1)C(=O)CCC(=O)Nc1cc(C)on1` (stereo unspecified) here?
**A.** Its IC50 is > 50 µM (inactive).

**Q.** With `O=C(Nc1cccc(-c2nc3ccccc3[nH]2)c1)c1cccc2c1C(=O)N(CCc1ccccc1)C2` as the molecule, how does the IC50 read?
**A.** The IC50 was > 50 µM (inactive).

**Q.** For `COCCN1Cc2cccc(C(=O)Nc3cccc(C(=O)Nc4ccccc4OC)c3)c2C1=O`, which IC50 is on record?
**A.** Its IC50 is > 50 µM (inactive).

**Q.** With `COCCN1Cc2cccc(C(=O)Nc3cccc(C(=O)Nc4ccccc4)c3)c2C1=O` as the molecule, how does the IC50 read?
**A.** Its IC50 is > 50 µM (inactive).

**Q.** How did the IC50 turn out when `COCCCN1Cc2cccc(C(=O)Nc3cccc(-c4nc5ccccc5[nH]4)c3)c2C1=O` was run?
**A.** Its IC50 is > 50 µM (inactive).

**Q.** With `CSCCCN1Cc2cccc(C(=O)Nc3cccc(-c4nc5ccccc5[nH]4)c3)c2C1=O` as the molecule, how does the IC50 read?
**A.** Its IC50 is > 50 µM (inactive).

**Q.** Which IC50 does the source give for `O=C(CSc1nc2ccc(Nc3nc(N4CCOCC4)nc(N4CCOCC4)n3)cc2s1)NCc1ccco1` here?
**A.** The IC50 was > 50 µM (inactive).

**Q.** How did the IC50 turn out when `Cc1ccc(-c2nc(NC(=O)c3cc(C(C)(C)C)nn3C)sc2C)cc1Cl` was run?
**A.** The IC50 was > 50 µM (inactive).
